Measured values: article PMC6438731, “Extrasynaptic δ‐GABAA receptors are high‐affinity muscimol receptors” (Journal of Neurochemistry, 2019)

Legend:
[1] = parameters: method as in Maggi and Enna 1979; details: rat brain, ref Maggi and Enna 1979; cited from earlier work
[2] = target: cerebellar membranes of δKO mice; experiment: Saturation analysis of [^3H]muscimol binding, δKO cerebellar membranes; parameters: species or system mouse; details: 0°C
Experimental: (§1) WT and δKO forebrain and cerebellar membranes were prepared using a modification of the method of Squires and Saederup (2000) essentially as described by Uusi‐Oukari et al. (2014). […] forebrain along with midbrain region was homogenized into 10 mM Tris‐HCl, pH 8.0 buffer containing 2 mM EDTA, using an Ultra‐Turrax T25 (Janke & Kunkel IKA labortechnik) for 20 s at 9500 rpm. The homogenates were centrifuged at 20 000 g for 10 min at +4°C and the resulting pellets were washed three times by resuspension and re‐centrifugation with 10 mM Tris‐HCl, pH 8.5 buffer containing 0.2 M NaCl, and 5 mM EDTA. The resulting pellets were then suspended in ice‐cold H2O and centrifuged. The pellets were again washed three times with Tris, pH 8.5/NaCl/EDTA as described above. The resulting pellets were finally suspended in assay buffer consisting of 50 mM Tris‐base, pH adjusted to 7.4 with citric acid, and frozen at −70°C. Before a binding experiment, the suspension was thawed, centrifuged, and suspended in assay buffer.
Saturation analysis of [^3H]muscimol to WT and δKO mouse forebrain and cerebellar membranes was performed essentially as described by Uusi‐Oukari and Korpi (1989). […] The incubations were terminated as described above.

[3] = target: T1, α6β2γ2 recombinant GABAA receptor (Rattus norvegicus, UniProt P30191+P63138); experiment: [^3H]muscimol binding kinetics, recombinant α6β2γ2 in HEK293 membranes
T1 construct: expressed in transfected cells; host or cells: HEK293 (ATCC CRL-1573), pRK5 plasmids, membranes
T1 sequence (P30191 20-453): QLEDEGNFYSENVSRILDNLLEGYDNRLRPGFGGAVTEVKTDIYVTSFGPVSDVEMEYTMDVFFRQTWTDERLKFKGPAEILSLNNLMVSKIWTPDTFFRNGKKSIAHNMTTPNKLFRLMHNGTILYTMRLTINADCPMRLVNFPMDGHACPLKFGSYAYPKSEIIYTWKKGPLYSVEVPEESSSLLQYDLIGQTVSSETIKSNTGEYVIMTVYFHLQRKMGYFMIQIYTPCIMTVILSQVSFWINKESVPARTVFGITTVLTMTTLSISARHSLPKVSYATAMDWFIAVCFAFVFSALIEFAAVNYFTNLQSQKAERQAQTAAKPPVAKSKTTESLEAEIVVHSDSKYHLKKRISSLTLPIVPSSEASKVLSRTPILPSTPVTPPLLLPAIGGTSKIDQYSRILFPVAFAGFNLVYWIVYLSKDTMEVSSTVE
T1 sequence (P63138 26-474): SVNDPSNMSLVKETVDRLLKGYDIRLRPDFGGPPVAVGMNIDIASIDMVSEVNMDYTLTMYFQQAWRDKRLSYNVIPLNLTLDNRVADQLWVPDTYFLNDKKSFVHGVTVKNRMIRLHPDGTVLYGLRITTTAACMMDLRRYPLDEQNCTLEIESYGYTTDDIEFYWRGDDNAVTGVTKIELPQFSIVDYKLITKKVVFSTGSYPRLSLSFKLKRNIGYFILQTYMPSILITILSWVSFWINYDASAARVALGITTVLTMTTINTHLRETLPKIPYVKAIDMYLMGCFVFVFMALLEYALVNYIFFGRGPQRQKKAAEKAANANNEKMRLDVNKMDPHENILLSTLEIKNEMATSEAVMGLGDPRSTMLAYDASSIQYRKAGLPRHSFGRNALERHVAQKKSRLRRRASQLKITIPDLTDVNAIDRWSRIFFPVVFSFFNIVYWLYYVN
T1 sequence (P18508 39-466 partner): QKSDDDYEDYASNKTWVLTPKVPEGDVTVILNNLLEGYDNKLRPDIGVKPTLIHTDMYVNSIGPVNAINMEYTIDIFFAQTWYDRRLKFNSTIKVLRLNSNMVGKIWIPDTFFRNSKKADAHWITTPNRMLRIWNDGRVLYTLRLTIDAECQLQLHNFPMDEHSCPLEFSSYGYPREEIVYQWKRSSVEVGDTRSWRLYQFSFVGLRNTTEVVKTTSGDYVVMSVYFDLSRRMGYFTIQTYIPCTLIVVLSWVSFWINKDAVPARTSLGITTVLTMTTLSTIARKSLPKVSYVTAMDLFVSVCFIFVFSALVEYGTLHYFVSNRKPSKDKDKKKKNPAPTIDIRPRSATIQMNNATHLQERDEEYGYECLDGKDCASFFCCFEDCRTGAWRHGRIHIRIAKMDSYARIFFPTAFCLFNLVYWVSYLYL
Excerpt: Human embryonic kidney (HEK) 293 cells (ATCC Cat# CRL‐1573; RRID: CVCL_0045; a commonly misidentified cell line by ICLAC; last authenticated by STR DNA profiling in December 2018) were transfected with rat cDNAs (α1, L08490; α6, L08495; β2, X15467; β3, X15468; γ2S, L08497; δ, L08496) in pRK5 plasmids under the control of the cytomegalovirus promoter (Uusi‐Oukari et al. 2000), using the calcium phosphate precipitation method essentially as described (Lüddens and Korpi 1997). The plasmids were used in 1 : 1 and 1 : 1 : 1 ratios for transfections containing 2 [(α1 or α6) + (β2 or β3)] or 3 [(α1 or α6) + (β2 or β3) + (γ2S or δ)] different subunits, respectively (5 μg of each plasmid DNA for a 10 cm plate). Mock transfection was done using 5 μg pRK5 plasmid backbone. The cells were harvested 48 h after transfection. Culture medium was removed and the cells were detached from the plates by pipetting in ice‐cold assay buffer containing 2 mM EDTA. The cells were homogenized (Ultra Turrax, 20 s at 9500 rpm), the homogenates centrifuged at 20 000 g for 10 min at +4°C, and washed once with the same buffer. The homogenates were finally suspended in assay buffer (1 mL/plate) and either used directly to binding assays or stored frozen at −70°C.
The binding of [^3H]muscimol (5 nM) was measured in assay buffer at 22°C in a total volume of 300 μL. Triplicate technical replicates of mouse forebrain (190–215 μg protein), cerebellar (180–210 μg protein) or HEK cell (92–132 μg protein) membranes for each time point were incubated with shaking for various times (15 s–15 min) to measure association of the binding. […] The incubation was terminated by filtration of the samples with a Brandel Cell Harvester (model M‐24, Gaithersburg, MD, USA) onto Whatman GF/B filters (Whatman International Ltd., Maidstone, UK). The samples were rinsed twice with 4–5 mL of ice‐cold assay buffer. Filtration and rinsing steps took a total time of ~15 s. Air‐dried filters were immersed in 3 mL of Optiphase HiSafe 3 scintillation fluid (Wallac, Turku, Finland) and radioactivity determined in a Wallac model 1410 liquid scintillation counter (Wallac, Turku, Finland). The maximal binding disintegrations per minute (DPM) values (at 15 min in association) for recombinant studies with 5 nM [^3H]muscimol were between 700 and 2500 DPMs of specific binding (background subtracted). […]
(§2) The tubes were mixed and incubations at 22°C were terminated at various time points (30 s – 30 min) as described above. Dissociation of [^3H]muscimol from recombinant receptors in HEK cell membranes was also measured at 0–4°C (on ice) to evaluate how fast [^3H]muscimol dissociates from receptors while washing the filter with ice‐cold assay buffer during filtration.

[4] = target: T2, α1β2δ recombinant GABAA receptor (Rattus norvegicus, UniProt P62813+P63138); experiment: [^3H]muscimol binding kinetics, recombinant α1β2δ in HEK293 membranes; details: room temperature (22°C)
T2 construct: expressed in transfected cells; host or cells: HEK293 (ATCC CRL-1573), pRK5 plasmids, membranes
T2 sequence (P62813 28-455): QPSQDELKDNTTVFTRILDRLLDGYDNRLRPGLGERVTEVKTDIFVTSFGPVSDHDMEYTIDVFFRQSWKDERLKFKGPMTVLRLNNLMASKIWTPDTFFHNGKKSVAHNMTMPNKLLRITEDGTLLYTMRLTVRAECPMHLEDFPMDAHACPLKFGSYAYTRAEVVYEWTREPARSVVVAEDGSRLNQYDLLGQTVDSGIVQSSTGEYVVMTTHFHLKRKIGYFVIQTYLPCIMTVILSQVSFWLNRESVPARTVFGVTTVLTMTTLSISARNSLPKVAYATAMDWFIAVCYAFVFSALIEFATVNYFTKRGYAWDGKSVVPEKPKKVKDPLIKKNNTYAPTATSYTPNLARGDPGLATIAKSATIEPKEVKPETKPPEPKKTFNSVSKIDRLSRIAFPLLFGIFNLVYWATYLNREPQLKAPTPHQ
T2 sequence (P63138 26-474): as the sequence (P63138 26-474) above
T2 sequence (P18506 25-449 partner): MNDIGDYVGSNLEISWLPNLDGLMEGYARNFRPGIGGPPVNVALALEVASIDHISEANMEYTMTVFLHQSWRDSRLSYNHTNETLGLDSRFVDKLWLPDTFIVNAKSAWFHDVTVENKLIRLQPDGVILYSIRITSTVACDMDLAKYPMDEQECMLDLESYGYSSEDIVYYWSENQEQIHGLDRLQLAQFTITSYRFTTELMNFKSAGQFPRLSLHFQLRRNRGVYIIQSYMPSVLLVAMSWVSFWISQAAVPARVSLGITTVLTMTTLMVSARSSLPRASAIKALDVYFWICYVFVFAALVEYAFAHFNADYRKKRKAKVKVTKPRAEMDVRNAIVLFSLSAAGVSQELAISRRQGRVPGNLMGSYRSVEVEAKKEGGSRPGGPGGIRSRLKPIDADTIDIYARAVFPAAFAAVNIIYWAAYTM
Excerpt: Human embryonic kidney (HEK) 293 cells (ATCC Cat# CRL‐1573; RRID: CVCL_0045; a commonly misidentified cell line by ICLAC; last authenticated by STR DNA profiling in December 2018) were transfected with rat cDNAs (α1, L08490; α6, L08495; β2, X15467; β3, X15468; γ2S, L08497; δ, L08496) in pRK5 plasmids under the control of the cytomegalovirus promoter (Uusi‐Oukari et al. 2000), using the calcium phosphate precipitation method essentially as described (Lüddens and Korpi 1997). The plasmids were used in 1 : 1 and 1 : 1 : 1 ratios for transfections containing 2 [(α1 or α6) + (β2 or β3)] or 3 [(α1 or α6) + (β2 or β3) + (γ2S or δ)] different subunits, respectively (5 μg of each plasmid DNA for a 10 cm plate). […]
The binding of [^3H]muscimol (5 nM) was measured in assay buffer at 22°C in a total volume of 300 μL. […] Air‐dried filters were immersed in 3 mL of Optiphase HiSafe 3 scintillation fluid (Wallac, Turku, Finland) and radioactivity determined in a Wallac model 1410 liquid scintillation counter (Wallac, Turku, Finland).
as §2

[5] = target: cerebellar membranes of δKO mice (non‐δ‐GABAARs); experiment: [^3H]muscimol binding kinetics, δKO cerebellar membranes; parameters: species or system mouse
Experimental: as §1
The binding of [^3H]muscimol (5 nM) was measured in assay buffer at 22°C in a total volume of 300 μL. Triplicate technical replicates of mouse forebrain (190–215 μg protein), cerebellar (180–210 μg protein) or HEK cell (92–132 μg protein) membranes for each time point were incubated with shaking for various times (15 s–15 min) to measure association of the binding. […] Air‐dried filters were immersed in 3 mL of Optiphase HiSafe 3 scintillation fluid (Wallac, Turku, Finland) and radioactivity determined in a Wallac model 1410 liquid scintillation counter (Wallac, Turku, Finland). […]
as §2

[6] = room temperature (22°C), 5 nM [^3H]muscimol

## NCc1cc(=O)[nH]o1 [[^3H]muscimol] [[Methylene‐^3H]muscimol]
[1]
  fraction of peripherally injected [^3H]muscimol that entered the brain: around 0.02%
[2]
  Apparent pKD: 8.15 ± 0.02
[3]; 22°C, K D = koff/kon
  Kd: 1.6 nM
[3]; +4 °C
  k off: 0.086 ± 0.010 ^, ^** min^−1
[3]; room temperature (22°C)
  k off: 0.98 ± 0.02 ^### ^, ^††† min^−1
[3]; [6]
  k on: 6.3 ± 0.5 × 10^8, ^### ^, ^††† M^−1 × min^−1
[4]
  k off: 0.18 ± 0.03 ^### min^−1
[5]; 22°C, K D = koff/kon
  Kd: 1.4 nM
[5]; room temperature (22°C)
  k off: 1.11 ± 0.09 ^* min^−1
[5]; [6]
  k on: 7.7 ± 0.2 × 10^8 ^** M^−1 × min^−1
